Reference: publication PMC10688702, “The indole motif is essential for the antitrypanosomal activity of N^5-substituted paullones” (PLOS ONE, 2023)

What follows are molecules tested on L. infantum amastigotes (intracellular, in J774.A1 macrophages) (assay: Viability assay for L. infantum amastigotes). Details: Leishmania infantum, J774.A1, 24 h, read-out: L. infantum amastigote viability [% at 20 μM].
Assay type: cell-based
Summary of the method: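 Luciferase-expressing L. infantum metacyclic promastigotes (MHOM/MA/67/ITMAP263) infected J774.A1 murine macrophages at 1:10 for 24 h at 37 °C, 5% CO2. After compound treatment, a further 24 h incubation followed. Percent amastigote viability, in triplicate, was normalised to host-cell density by a propidium iodide correction factor.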

How did the viability at 20 µM turn out when `CNCCNC(=O)CN1C(=O)Cc2c([nH]c3ccc(I)cc23)-c2ccc(Cl)cc21` [1f, 2-(3-Chloro-9-iodo-6-oxo-7,12-dihydrobenzo[2,3]azepino[4,5-b]indol-5(6H)-yl)-N-[2-(methylamino)ethyl]acetamide] was run?
The viability at 20 µM was 72 ± 5%.

How did the viability at 20 µM turn out when `CNCCNC(=O)CN1C(=O)Cc2c([nH]c3ccc(Cl)cc23)-c2ccc(Cl)cc21` [1g, 2-(3,9-Dichloro-6-oxo-7,12-dihydrobenzo[2,3]azepino[4,5-b]indol-5(6H)-yl)-N-[2-(methylamino)ethyl]acetamide] was run?
The viability at 20 µM was 70 ± 2%.

Which viability at 20 µM does the source give for `CNCCNC(=O)CN1C(=O)Cc2c([nH]c3ccc(C(F)(F)F)cc23)-c2ccc(Cl)cc21` [1h, 2-(3-Chloro-6-oxo-9-trifluoromethyl-7,12-dihydrobenzo[2,3]azepino[4,5-b]indol-5(6H)-yl)-N-[2-(methylamino)ethyl]acetamide] here?
Its viability at 20 µM is 93 ± 10%.
